In ChEMBL document CHEMBL5537115, “New broad-spectrum and potent antibacterial agents with dual-targeting mechanism: Promoting FtsZ polymerization and disrupting bacterial membranes” (Eur J Med Chem, 2024):
Activity calls are given as the source filed them. The calls are words filed in the database; no cut-off is given here.

Experiments:
Acinetobacter baumannii [1] = experiment: Selectivity ratio of MBC for Acinetobacter baumannii ATCC19606 to MIC for Acinetobacter baumannii ATCC19606; format: functional
Acinetobacter baumannii [2] = experiment: Antibacterial activity against Acinetobacter baumannii ATCC19606 incubated for 18 to 24 hrs; format: functional; settings: time 18-24 hrs
Staphylococcus aureus [3] = experiment: Selectivity ratio of MBC for Staphylococcus aureus clinical isolate to MIC for Staphylococcus aureus clinical isolate; format: functional
Staphylococcus aureus [4] = experiment: Antibacterial activity against Staphylococcus aureus clinical isolate incubated for 18 to 24 hrs; format: functional; settings: time 18-24 hrs
Bacillus subtilis [5] = experiment: Selectivity ratio of MBC for penicillin-susceptible Bacillus subtilis ATCC9372 to MIC for penicillin-susceptible Bacillus subtilis ATCC9372; format: functional
Bacillus subtilis [6] = experiment: Antibacterial activity against penicillin-susceptible Bacillus subtilis ATCC9372 incubated for 18 to 24 hrs; format: functional; settings: time 18-24 hrs
Staphylococcus aureus [7] = experiment: Antibacterial activity against methicillin-resistant Staphylococcus aureus ATCC43300 incubated for 18 to 20 hrs; format: functional; settings: time 18-20 hrs
Staphylococcus aureus [8] = experiment: Selectivity ratio of MBC for erythromycin-susceptible Staphylococcus aureus ATCC25923 to MIC for erythromycin-susceptible Staphylococcus aureus ATCC25923; format: functional
Staphylococcus aureus [9] = experiment: Antibacterial activity against erythromycin-susceptible Staphylococcus aureus ATCC25923 incubated for 18 to 24 hrs; format: functional; settings: time 18-24 hrs
Streptococcus pyogenes [10] = experiment: Antibacterial activity against erythromycin-resistant Streptococcus pyogenes 2 clinical isolate assessed as bacterial growth inhibition incubated for 20 hrs by CLSI based broth microdilution method; format: functional
[11] = test system: Staphylococcus epidermidis; experiment: Antibacterial activity against penicillin-resistant Staphylococcus epidermidis clinical isolate assessed as bacterial growth inhibition incubated for 20 hrs by CLSI based broth microdilution method; format: functional
Staphylococcus aureus [12] = experiment: Antibacterial activity against Staphylococcus aureus clinical isolate assessed as bacterial growth inhibition incubated for 20 hrs by CLSI based broth microdilution method; format: functional
Staphylococcus aureus [13] = experiment: Antibacterial activity against penicillin-resistant Staphylococcus aureus ATCC31007 assessed as bacterial growth inhibition incubated for 20 hrs by CLSI based broth microdilution method; format: functional
Staphylococcus aureus [14] = experiment: Antibacterial activity against methicillin-resistant Staphylococcus aureus ATCC43300 assessed as bacterial growth inhibition incubated for 20 hrs by CLSI based broth microdilution method; format: functional
Klebsiella pneumoniae = experiment: Antibacterial activity against Klebsiella pneumoniae ATCC BAA-1902 assessed as bacterial growth inhibition incubated for 20 hrs by CLSI based broth microdilution method; format: functional
Acinetobacter baumannii [15] = experiment: Antibacterial activity against Acinetobacter baumannii ATCC19606 assessed as bacterial growth inhibition incubated for 20 hrs by CLSI based broth microdilution method; format: functional
Escherichia coli [16] = experiment: Antibacterial activity against wild-type Escherichia coli BW25113 assessed as bacterial growth inhibition incubated for 20 hrs by CLSI based broth microdilution method; format: functional
Escherichia coli [17] = experiment: Antibacterial activity against penicillin-susceptible Escherichia coli ATCC25922 assessed as bacterial growth inhibition incubated for 20 hrs by CLSI based broth microdilution method; format: functional
Enterococcus faecium [18] = experiment: Antibacterial activity against vancomycin-susceptible Enterococcus faecium ATCC19434 assessed as bacterial growth inhibition incubated for 20 hrs by CLSI based broth microdilution method; format: functional
Enterococcus faecalis [19] = experiment: Antibacterial activity against vancomycin-susceptible Enterococcus faecalis ATCC29212 assessed as bacterial growth inhibition incubated for 20 hrs by CLSI based broth microdilution method; format: functional
Streptococcus pyogenes [20] = experiment: Antibacterial activity against erythromycin-susceptible Streptococcus pyogenes 1 assessed as bacterial growth inhibition incubated for 20 hrs by CLSI based broth microdilution method; format: functional
Staphylococcus aureus [21] = experiment: Antibacterial activity against erythromycin-susceptible Staphylococcus aureus ATCC25923 assessed as bacterial growth inhibition incubated for 20 hrs by CLSI based broth microdilution method; format: functional
Bacillus pumilus = experiment: Antibacterial activity against penicillin-susceptible Bacillus pumilus CMCC63202 assessed as bacterial growth inhibition incubated for 20 hrs by CLSI based broth microdilution method; format: functional
Bacillus subtilis [22] = experiment: Antibacterial activity against penicillin-susceptible Bacillus subtilis ATCC9372 assessed as bacterial growth inhibition incubated for 20 hrs by CLSI based broth microdilution method; format: functional
Enterococcus faecalis [23] = experiment: Antibacterial activity against vancomycin-resistant Enterococcus faecalis ATCC51299 assessed as bacterial growth inhibition incubated for 20 hrs by CLSI based broth microdilution method; format: functional
Enterococcus faecium [24] = experiment: Antibacterial activity against vancomycin-resistant Enterococcus faecium ATCC51559 assessed as bacterial growth inhibition incubated for 20 hrs by CLSI based broth microdilution method; format: functional
Staphylococcus aureus [25] = experiment: Selectivity ratio of MBC for methicillin-resistant Staphylococcus aureus ATCC43300 to MIC for methicillin-resistant Staphylococcus aureus ATCC43300; format: functional
Staphylococcus aureus [26] = experiment: Induction of resistance development in Staphylococcus aureus ATCC25923 assessed as fold increase in MIC at 0.5 times MIC measured after 32 days by multi-passage resistance assay relative to control; format: functional; settings: time 32.0 day
Staphylococcus aureus [27] = experiment: Inhibition of biofilm formation of Staphylococcus aureus ATCC25923 incubated for 20 hrs by crystal violet staining based analysis; format: functional, organism-based
Staphylococcus aureus [28] = experiment: Inhibition of biofilm formation of Staphylococcus aureus ATCC25923 at 0.5 ug/ml incubated for 20 hrs by crystal violet staining based analysis relative to control; format: functional
Bacillus subtilis [29] = experiment: Induction of morphological change in Bacillus subtilis ATCC9372 assessed as increase in cell length at 0.5 times MIC by phase contrast microscopy; format: functional, organism-based
[30] = molecular target: T1, Cell division protein FtsZ (Bacillus subtilis) (UniProt A5Z1V5); experiment: Induction of FtsZ polymerization in Bacillus subtilis at 2.5 to 10 ug/ml preincubated with compound followed by GTP addition by absorbance based assay; settings: dose 2.5-10 µg/ml, time 40.0 min, TDE = time-dependent effect
T1 sequence (whole entry): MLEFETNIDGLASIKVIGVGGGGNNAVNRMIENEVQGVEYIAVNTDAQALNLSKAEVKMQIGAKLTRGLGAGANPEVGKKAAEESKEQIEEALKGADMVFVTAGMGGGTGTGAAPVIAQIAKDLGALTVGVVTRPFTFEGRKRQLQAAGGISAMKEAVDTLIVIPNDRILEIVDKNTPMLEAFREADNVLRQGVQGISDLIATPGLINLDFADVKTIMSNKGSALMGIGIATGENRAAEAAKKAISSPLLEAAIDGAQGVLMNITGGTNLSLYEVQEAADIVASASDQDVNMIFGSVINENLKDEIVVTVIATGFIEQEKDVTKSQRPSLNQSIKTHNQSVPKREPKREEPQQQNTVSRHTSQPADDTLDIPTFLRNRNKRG

[31] = molecular target: T1, Cell division protein FtsZ (Bacillus subtilis); experiment: Induction of FtsZ polymerization in Bacillus subtilis preincubated for 10 mins followed by GTP addition measured upto 30 mins by absorbance based assay; settings: dose 2.5-10 µg/ml, time 40.0 min
[32] = molecular target: T1, Cell division protein FtsZ (Bacillus subtilis); experiment: Induction of FtsZ polymerization in Bacillus subtilis assessed as bundling of FtsZ protofilaments at 10 ug/ml preincubated for 15 mins followed by GTP addition measured after 10 mins by TEM analysis; settings: dose 10.0 µg/ml, time 25.0 min
Staphylococcus aureus [33] = experiment: Induction of membrane potential depolarization in Staphylococcus aureus ATCC25923 measured after 20 mins by diSC35 dye based spectroscopy; format: functional, organism-based
Escherichia coli [34] = experiment: Induction of membrane potential depolarization in Escherichia coli ATCC25922 measured after 20 mins by diSC35 dye based spectroscopy; format: functional, organism-based
Staphylococcus aureus [35] = experiment: Disruption of inner membrane in Staphylococcus aureus ATCC25923 measured after 12 mins by PI staining based analysis; format: functional, organism-based
Staphylococcus aureus [36] = experiment: Disruption of inner membrane in Staphylococcus aureus ATCC25923 by PI staining based analysis; format: functional, organism-based; settings: time 12.0 min, TDE = time-dependent effect
Escherichia coli [37] = experiment: Disruption of inner membrane in Escherichia coli ATCC25922 measured after 12 mins by PI staining based analysis; format: functional, organism-based
Escherichia coli [38] = experiment: Disruption of inner membrane in Escherichia coli ATCC25922 by PI staining based analysis; format: functional, organism-based; settings: time 12.0 min, TDE = time-dependent effect
Escherichia coli [39] = experiment: Disruption of outer membrane in Escherichia coli ATCC25922 measured after 10 mins by NPN dye based analysis; format: functional, organism-based; settings: dose 4-16 µg/ml
Staphylococcus aureus [40] = experiment: Induction of morphological change in Staphylococcus aureus ATCC25923 assessed as loss of bacterial membrane integrity at 16 times MIC incubated for 2 hrs by TEM analysis; format: functional, organism-based
Staphylococcus aureus [41] = experiment: Induction of morphological change in Staphylococcus aureus ATCC25923 assessed as leakage of cell contents at 16 times MIC incubated for 2 hrs by TEM analysis; format: functional, organism-based
[42] = Hemolytic activity in mouse erythrocytes at 8 ug/ml incubated for 1 hr by absorbance based assay; format: toxicity, cell-based, Erythrocyte; settings: at 8 µg/mL, read-out: Activity
[43] = Hemolytic activity in mouse erythrocytes at 16 ug/ml incubated for 1 hr by absorbance based assay; format: toxicity, cell-based, Erythrocyte; settings: at 16 µg/mL, read-out: Activity
Staphylococcus aureus [44] = experiment: Antibacterial activity against Staphylococcus aureus ATCC25923 infected in Kunming mouse model assessed as bacterial growth reduction at 25 mg/kg, ip; format: functional, organism-based

SMILES: CN(C)c1ccc(/C=C/c2cc(-c3ccc(C(C)(C)C)cc3)[n+](C)cc2-c2ccccc2)cc1.[I-]
- Ratio (Acinetobacter baumannii [1]): 4
- MBC (Acinetobacter baumannii [2]): 4 µg/mL
- Ratio (Staphylococcus aureus [3]): 4
- MBC (Staphylococcus aureus [4]): 1 µg/mL
- Ratio (Bacillus subtilis [5]): 16
- MBC (Bacillus subtilis [6]): 2 µg/mL
- MBC (Staphylococcus aureus [7]): 1 µg/mL
- Ratio (Staphylococcus aureus [8]): 8
- MBC (Staphylococcus aureus [9]): 1 µg/mL
- MIC (Streptococcus pyogenes [10]): 2 µg/mL
- MIC [11]: 1 µg/mL
- MIC (Staphylococcus aureus [12]): 0.125 µg/mL
- MIC (Staphylococcus aureus [13]): 0.5 µg/mL
- MIC (Staphylococcus aureus [14]): 0.25 µg/mL
- MIC (Klebsiella pneumoniae): 8 µg/mL
- MIC (Acinetobacter baumannii [15]): 1 µg/mL
- MIC (Escherichia coli [16]): 8 µg/mL
- MIC (Escherichia coli [17]): 4 µg/mL
- MIC (Enterococcus faecium [18]): 2 µg/mL
- MIC (Enterococcus faecalis [19]): 2 µg/mL
- MIC (Streptococcus pyogenes [20]): 2 µg/mL
- MIC (Staphylococcus aureus [21]): 0.125 µg/mL
- MIC (Bacillus pumilus): 0.25 µg/mL
- MIC (Bacillus subtilis [22]): 0.125 µg/mL
- MIC (Enterococcus faecalis [23]): 2 µg/mL
- MIC (Enterococcus faecium [24]): 2 µg/mL

SMILES: Cc1ccccc1-c1c[n+](C)c(-c2ccc(C(C)(C)C)cc2)cc1/C=C/c1ccc(C(C)(C)C)cc1.[I-]
- Ratio (Acinetobacter baumannii [1]): 4
- MBC (Acinetobacter baumannii [2]): 2 µg/mL
- Ratio (Staphylococcus aureus [3]): 2
- MBC (Staphylococcus aureus [4]): 0.5 µg/mL
- Ratio (Staphylococcus aureus [25]): 1
- Ratio (Bacillus subtilis [5]): 32
- MBC (Bacillus subtilis [6]): 4 µg/mL
- MBC (Staphylococcus aureus [7]): 0.25 µg/mL
- Ratio (Staphylococcus aureus [8]): 4
- MBC (Staphylococcus aureus [9]): 0.5 µg/mL
- MIC (Streptococcus pyogenes [10]): 2 µg/mL
- MIC [11]: 0.5 µg/mL
- MIC (Staphylococcus aureus [12]): 0.25 µg/mL
- MIC (Staphylococcus aureus [13]): 1 µg/mL
- MIC (Staphylococcus aureus [14]): 0.25 µg/mL
- MIC (Klebsiella pneumoniae): 4 µg/mL
- MIC (Acinetobacter baumannii [15]): 0.5 µg/mL
- MIC (Escherichia coli [16]): 2 µg/mL
- MIC (Escherichia coli [17]): 4 µg/mL
- MIC (Enterococcus faecium [18]): 0.125 µg/mL
- MIC (Enterococcus faecalis [19]): 1 µg/mL
- MIC (Streptococcus pyogenes [20]): 2 µg/mL
- MIC (Staphylococcus aureus [21]): 0.125 µg/mL
- MIC (Bacillus pumilus): 0.5 µg/mL
- MIC (Bacillus subtilis [22]): 0.125 µg/mL
- MIC (Enterococcus faecalis [23]): 0.25 µg/mL
- MIC (Enterococcus faecium [24]): 0.5 µg/mL
- fold change (FC) (Staphylococcus aureus [26]): 2
- inhibition (Staphylococcus aureus [27]): Dose-Dependent Effect
- inhibition at 0.5 µg/mL (Staphylococcus aureus [28]): 28.8%
- Activity (Bacillus subtilis [29]): Active
- Activity [30]: Tde
- Activity [31]: Dose-Dependent Effect
- Activity [32]: Active
- Activity (Staphylococcus aureus [33]): Dose-Dependent Effect
- Activity (Escherichia coli [34]): Dose-Dependent Effect
- Activity (Staphylococcus aureus [35]): Dose-Dependent Effect
- Activity (Staphylococcus aureus [36]): Tde
- Activity (Escherichia coli [37]): Dose-Dependent Effect
- Activity (Escherichia coli [38]): Tde
- Activity (Escherichia coli [39]): Dose-Dependent Effect
- Activity (Staphylococcus aureus [40]): Active
- Activity (Staphylococcus aureus [41]): Active
- hemolysis at 1 h, 8 ug/ml [42]: 8.29%
- hemolysis at 1 h, 16 ug/ml [43]: 18.9%
- Activity (Staphylococcus aureus [44]): Active
